Entries after “also recorded” stand apart in the source; their conditions may differ. Read-outs that look alike come from different tables or passages of the source.
Tests used:
[1] = tested on: subcutaneous U87 xenograft tumors; test: Subcutaneous U87 xenograft in SCID mice; conditions: Spironolactone 25 mg/kg i.p. 5 days per week from day 8; LP-184 4 mg/kg i.v. every other day for 4 doses from day 9
Procedure: (§1) SCID mice bearing pre-established subcutaneous U87 xenograft tumors were treated with Spironolactone alone, LP-184 alone or their combination. Spironolactone treatment began on post implantation day 8 at 25 mg/kg intraperitoneally 5 days per week, and LP-184 on day 9 at 4 mg/kg intravenously every other day for 4 doses.

[2] = tested on: U87, M1123 and Mayo39 glioblastoma cultures; test: GBM cell viability, pooled statement on IC50 shift; assay type: cell-based; conditions: with 5 μM Spironolactone
[3] = tested on: M1123 (glioblastoma cell line); test: M1123 cell viability in vitro; assay type: cell-based
[4] = tested on: Mayo39 (Glioblastoma cell line); test: Mayo39 cell viability in vitro; assay type: cell-based
[5] = tested on: U87 (glioblastoma cell line); test: U87 cell growth / survival / viability in vitro; assay type: cell-based; conditions: for IC50: Homo sapiens, U-87 MG
[6] = tested on: subcutaneous U87 xenograft tumors; conditions: beginning on ~day 25
Procedure: as §1

[7] = tested on: RPMI 8226 human myeloma cell lines; test: RPMI 8226 cell growth / cytotoxicity in vitro; assay type: cell-based
[8] = tested on: CAKI-2 (papillary renal cell carcinoma cell line); test: CAKI-2 cell growth / survival in vitro; assay type: cell-based; conditions: spironolactone alone
[9] = tested on: CHLA-06 (atypical teratoid rhabdoid tumor cell line); test: CHLA-06 cell growth / survival in vitro; assay type: cell-based; conditions: spironolactone alone (10 μM)
[10] = tested on: ACHN (renal cell carcinoma cell line); test: ACHN cell growth / survival in vitro; assay type: cell-based; conditions: 10 μM spironolactone alone
[11] = tested on: 22RV1 (prostate cell line); test: 22RV1 cell growth / survival in vitro; assay type: cell-based; conditions: 10 μM spironolactone alone
ERCC3 = molecular target: T1, ERCC3 (Homo sapiens, UniProt P19447); test: ERCC3 western blot in glioblastoma cell lines; assay type: cell-based; conditions: 10 μM spironolactone, over 24-72 hours
T1 construct: endogenous in cells; host or cells: M1123, Mayo39, U87 glioblastoma cell lines
T1 sequence (P19447 1-782): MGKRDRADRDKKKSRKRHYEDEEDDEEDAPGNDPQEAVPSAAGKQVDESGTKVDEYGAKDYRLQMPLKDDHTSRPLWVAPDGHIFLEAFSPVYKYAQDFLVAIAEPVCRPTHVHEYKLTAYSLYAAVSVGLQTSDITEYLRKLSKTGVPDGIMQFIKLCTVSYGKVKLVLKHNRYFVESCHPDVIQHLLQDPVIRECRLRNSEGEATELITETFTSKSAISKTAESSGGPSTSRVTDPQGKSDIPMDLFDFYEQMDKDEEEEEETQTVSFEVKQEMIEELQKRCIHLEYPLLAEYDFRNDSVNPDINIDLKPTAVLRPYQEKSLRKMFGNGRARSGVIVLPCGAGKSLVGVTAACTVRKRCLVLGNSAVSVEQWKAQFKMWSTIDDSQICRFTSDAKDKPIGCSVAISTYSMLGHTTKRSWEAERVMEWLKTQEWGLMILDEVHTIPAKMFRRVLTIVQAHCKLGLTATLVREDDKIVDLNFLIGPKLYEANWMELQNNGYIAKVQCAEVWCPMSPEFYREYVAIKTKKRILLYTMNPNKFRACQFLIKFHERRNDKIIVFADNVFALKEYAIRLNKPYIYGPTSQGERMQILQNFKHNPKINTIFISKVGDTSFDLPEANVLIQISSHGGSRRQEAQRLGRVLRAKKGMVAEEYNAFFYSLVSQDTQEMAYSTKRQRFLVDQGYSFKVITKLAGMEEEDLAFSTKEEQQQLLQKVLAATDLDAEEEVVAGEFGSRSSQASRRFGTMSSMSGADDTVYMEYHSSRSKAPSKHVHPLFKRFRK
Procedure: Representative images show quantification of ERCC3 western blot intensity with significant Spironolactone-mediated ERCC3 downregulation over 24-72 hours in different glioblastoma cell lines.

[12] = LP-184 alone, read-out: LP-184 alone IC50 [mean value
[13] = with 5 uM Spironolactone, read-out: LP-184 IC50 [mean value, nM] in combination with 5 uM Spironolactone

Compound | tumor growth / tumor regression [1] | decrease in LP-184 IC50s [2] | IC50 [3, 12] | IC50 [3, 13] | IC50 [4, 12] | IC50 [4, 13] | IC50 [5, 12] | IC50 [5, 13] | tumor regrowth (animals) [6] | reduction of LP-284 IC50 ([7]; by 10 μM spironolactone) | growth rates [8] | growth rates [9] | growth rates ([5]; spironolactone alone) | cell growth rates [10] | cell growth rates [11] | ERCC3 protein level (western blot) (ERCC3; M1123) | ERCC3 protein level (western blot) (ERCC3; Mayo39) | ERCC3 protein level (western blot) (ERCC3; U87) | cytotoxicity ([7]; 10 μM spironolactone treatment alone)
CC1=C(CN(O)C(N)=O)C2=C(C)C3(CC3)[C@@](C)(O)C(=O)C2=C1 [LP-184, (−)-hydroxyureamethyl acylfulvene] | complete or near complete tumor regression | 3-6 fold | 151 nM | 39.7 nM | 313 nM | 94.3 nM | 250 nM | 37.6 nM | 5/5 |  |  |  |  |  |  |  |  |  | 
CC1=C(CN(O)C(N)=O)C2=C(C)C3(CC3)[C@](C)(O)C(=O)C2=C1 [LP-284, (+)-hydroxyureamethyl acylfulvene] |  |  |  |  |  |  |  |  |  | 2.4 fold |  |  |  |  |  |  |  |  | 
CC(=O)SC1CC2=CC(=O)CCC2(C)C2CCC3(C)C(CCC34CCC(=O)O4)C12 (stereo not drawn) [Spironolactone, 7α-Acetylthiospirolactone] | no effect on tumor growth |  |  |  |  |  |  |  |  |  | did not substantially change the growth rates | did not substantially change the growth rates; also recorded: did not change the cell growth rates | did not substantially change the growth rates | did not change the cell growth rates | did not change the cell growth rates | time-dependent depletion | time-dependent depletion | time-dependent depletion | did not cause cytotoxicity
